Like-named read-outs stand apart in the source and are kept apart here. Bridge positions count the residues as written; N and C are the ends. Peptide text beside a SMILES is read from it. * marks the point of attachment. X1 = O=C(CCOCC(COCCC(=O)NCCOCCOCCOCCOC[C@@]12CO[C@@H](O1)[C@H](NC(=O)C(F)(F)F)[C@@H](O)[C@H]2O)(COCCC(=O)NCCOCCOCCOCCOC[C@@]12CO[C@@H](O1)[C@H](NC(=O)C(F)(F)F)[C@@H](O)[C@H]2O)NC(=O)CCO[C@H]1C[C@H](OCCC(=O)*)C1)NCCOCCOCCOCCOC[C@@]12CO[C@@H](O1)[C@H](NC(=O)C(F)(F)F)[C@@H](O)[C@H]2O
Molecular target: ASGPR (Homo sapiens (Human), UniProt P07306)
Sequence (P07306 whole entry): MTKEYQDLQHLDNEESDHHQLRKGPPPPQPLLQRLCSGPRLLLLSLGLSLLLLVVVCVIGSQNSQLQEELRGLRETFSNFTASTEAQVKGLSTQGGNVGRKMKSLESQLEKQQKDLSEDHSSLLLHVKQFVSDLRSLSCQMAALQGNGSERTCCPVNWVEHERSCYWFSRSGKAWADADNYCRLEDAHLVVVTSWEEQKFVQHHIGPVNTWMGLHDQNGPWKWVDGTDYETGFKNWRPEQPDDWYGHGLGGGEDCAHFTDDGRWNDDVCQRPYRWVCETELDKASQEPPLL
Experiment: Affinity to ASGPR measured by surface plasmon resonance (SPR)
Type: binding
[1] = ASGPR ligands, Table 2, Biacore 8K, 25° C., steady state fit, read-out: SPR Binding External Calculation: KD
[2] = ASGPR ligands, Table 4, numeric lower bounds, read-out: ASGPR_PR Binding KD

Compound | Kd [1] | other results
CS(=O)(=O)c1ccnc(N[C@H]2CO[C@H](CO)[C@H](O)[C@@H]2O)n1 [Compound A371, (2R,3R,4R,5S)-2-(hydroxymethyl)-5-((4-(methylsulfonyl)pyrimidin-2-yl)amino)tetrahydro-2H-pyran-3,4-diol] | – | Kd (ASGPR ligands, Table 4, class symbols, read-out: ASGPR_PR Binding KD): < 100 µM
CC(C)C[C@@H]1NC(=O)[C@@H](NC(=O)[C@@H](NC(=O)[C@H](CCC(N)=O)NC(=O)[C@H](Cc2cnc[nH]2)NC(=O)CCO[C@H]2C[C@H](OCCC(=O)NC(COCCC(=O)NCCOCCOCCOCCOC[C@@]34CO[C@@H](O3)[C@H](NC(=O)C(F)(F)F)[C@@H](O)[C@H]4O)(COCCC(=O)NCCOCCOCCOCCOC[C@@]34CO[C@@H](O3)[C@H](NC(=O)C(F)(F)F)[C@@H](O)[C@H]4O)COCCC(=O)NCCOCCOCCOCCOC[C@@]34CO[C@@H](O3)[C@H](NC(=O)C(F)(F)F)[C@@H](O)[C@H]4O)C2)C(C)C)CSSC[C@@H](C(=O)N[C@@H](Cc2ccccc2)C(=O)N[C@@H](CO)C(=O)N[C@H](C(N)=O)[C@@H](C)O)NC(=O)[C@H](C(C)C)NC(=O)[C@@H]2CCCN2C(=O)[C@H](CCCNC(=N)N)NC(=O)CNC(=O)[C@H](CCCNC(=N)N)NC(=O)[C@H](Cc2ccc(O)cc2)NC(=O)[C@H](CO)NC1=O [Compound 31] (X1-HQVCLSYRGRPVCFST-NH2; disulfide 4-13) | – | Kd (ASGPR ligands with linker, Table 5, read-out: ASGPR_SPR Binding KD): < 100 µM
CO[C@H]1O[C@H](CO)[C@H](O)[C@H](O)[C@H]1Nc1nc(Cl)ns1 [Compound A105, (2R,3R,4R,5R,6S)-5-((3-chloro-1,2,4-thiadiazol-5-yl)amino)-2-(hydroxymethyl)-6-methoxytetrahydro-2H-pyran-3,4-diol] | < 100 µM | –
CO[C@@H]1O[C@H](CO)[C@H](O)[C@H](O)[C@H]1n1ccc(=O)cc1 [Compound A119, 1-((2R,3R,4R,5R,6R)-4,5-dihydroxy-6-(hydroxymethyl)-2-methoxytetrahydro-2H-pyran-3-yl)pyridin-4(1H)-one] | < 100 µM | –
OC[C@H]1OC[C@H](Nc2ncc(Cl)cc2F)[C@@H](O)[C@H]1O [Compound A100] | < 100 µM | –
N#Cc1cc(N[C@H]2CO[C@H](CO)[C@H](O)[C@@H]2O)nc(C#N)n1 [Compound A348, 6-(((3S,4R,5R,6R)-4,5-dihydroxy-6-(hydroxymethyl)tetrahydro-2H-pyran-3-yl)amino)pyrimidine-2,4-dicarbonitrile] | – | Kd [2]: > 20 µM
OC[C@H]1OC[C@H](Nc2cc(C(F)(F)F)ccn2)[C@@H](O)[C@H]1O [Compound A356, (2R,3R,4R,5S)-2-(hydroxymethyl)-5-((4-(trifluoromethyl)pyridin-2-yl)amino)tetrahydro-2H-pyran-3,4-diol] | – | Kd [2]: > 20 µM
OC[C@@H]1CO[C@H](CO)[C@H](O)[C@@H]1O [Compound A181, (2R,3R,4R,5R)-2,5-bis(hydroxymethyl)tetrahydro-2H-pyran-3,4-diol] | 100 to 500 µM | –

From patent US20240072809A1, “ASGPR-BINDING COMPOUNDS FOR THE DEGRADATION OF EXTRACELLULAR PROTEINS” (Avilar Therapeutics, Inc., priority 2020, published 2024)
